Experimental findings from patent US6890944B2, “Organic acid salt of amlodipine” (priority 2002, dated 2005) are described below.

Like-named read-outs stand apart in the source and are kept apart here.

Common to all, as to assay type: physicochemical
A short description of series [1]: Test for hygroscopicity: water content (K.F. water %) at 25° C. at different humidity levels. The settings on record: for water content (K.F. water %): 25° C.
A short description of series [2]: Test for solubility in various solvents. To be noted: based on weight of amlodipine, note: dissolved at 37° C.
A short description of series [3]: Chemical stability in solid state, accelerated test at 60° C. (HPLC content).
Series [4] is described as follows: Chemical stability in aqueous state, stored at 25° C. for 4 weeks in complete darkness (HPLC). To be noted: in distilled water. The method, then: The resulting aqueous solutions were stored at 25° C. for 4 weeks in complete darkness, after which a measurement was made of the contents of the salts with resort to HPLC under the same conditions as in the solid state.

The nature of series [5]: Test for light stability: aqueous solutions stored at 25° C. for 4 weeks exposed to sunlight (HPLC). To be noted: 25° C. sunlight; for Content (HPLC): aqueous solution, stored for 4 weeks; for colour change: light stability test, 4 weeks. As for the experimental part:
The resulting aqueous solutions were stored at 25° C. for 4 weeks while being exposed to sunlight. A measurement was made of the contents of the salts with resort to HPLC under the same conditions as in the chemical stability test.

By solubility is commonly meant how much of the substance goes into solution per volume. As to `CCOC(=O)C1=C(COCCN)NC(C)=C(C(=O)OC)C1c1ccccc1Cl.O=C(O)Cc1ccc(O)cc1` (centres unmarked) [amlodipine p-hydroxyphenylacetate], the “water content (K.F. water %)” value in series [1] (25% RH, 1 week, listed as p-hydroxyphenylacetate) was 0.08%; in series [1] (60% RH, 1 week, listed as p-hydroxyphenylacetate), 0.1%; in series [1] (75% RH, 1 week, listed as p-hydroxyphenylacetate), 0.14%; in series [1] (90% RH, 1 week), 0.17%; in series [1] (Initial, listed as p-hydroxyphenylacetate), 0.15%. The hygroscopicity in series [1] (relative humidity 95%) is listed as no more than 0.5%. In addition, the solubility in series [2] (Dist. Water, 25° C. (text), listed as p-Hydroxyphenylacetate) worked out at 3.0 mg/mL; in series [2] (buffer pH 6, ionic strength 0.2, 25 °C, pH 6, aqueous buffer, pH 6, ionic strength 0.2 buffer, 25° C., read-out: solubility) it was 2.2 mg/mL; in series [2] (buffer pH 7, ionic strength 0.2, 25 °C, pH 7, aqueous buffer, pH 7, ionic strength 0.2 buffer, 25° C., read-out: solubility), 1.1 mg/mL; in series [2] (pH 2, ionic strength 0.2 buffer, 25° C. (text), listed as p-Hydroxyphenylacetate), 8.9 mg/mL; in series [2] (pH 4, ionic strength 0.2 buffer, 25° C. (text), listed as p-Hydroxyphenylacetate) it was 8.8 mg/mL; in series [2] (pH 7.4, ionic strength 0.2 buffer, 25° C. (text), listed as p-Hydroxyphenylacetate), 4.0 mg/mL. In addition, the solubility in series [2] (pH 8, ionic strength 0.2 buffer, 25° C. (text), listed as p-Hydroxyphenylacetate) was 3.0 mg/mL. Besides, the HPLC content came out at 99.6% in series [3] (1 week), 99.5% in series [3] (2 weeks), 99.4% in series [3] (4 weeks) and 99.7% in series [3] (initial). For the same compound, the “decomposition products / content change (HPLC)” value in series [4] is “neither decomposition products nor content change is found”. Further, in series [5], the “Content (HPLC)” value came out at 98.9%. In addition, the colour change result in series [5] is reported as “kept its original white color”.
Take `CCOC(=O)C1=C(COCCN)NC(C)=C(C(=O)OC)C1c1ccccc1Cl.Cc1ccc(S(=O)(=O)O)cc1` (centres unmarked) [Tosylate, Amlodipine Para-toluenesulfonate]: the “Content (HPLC)” value in series [5] turned out to be 72.0%.
As for `CCOC(=O)C1=C(COCCN)NC(C)=C(C(=O)OC)C1c1ccccc1Cl` (centres unmarked) [Besylate, amlodipine besylate, reference compound], the “water content (K.F. water %)” value in series [1] (25% RH, 1 week) was 0.10%; in series [1] (60% RH, 1 week), 0.09%; in series [1] (75% RH, 1 week) it was 0.15%; in series [1] (Initial) it was 0.14%. In addition, the solubility in series [2] (Dist. Water, 25° C. (text)) amounted to 1.29 mg/mL; in series [2] (pH 2, ionic strength 0.2 buffer, 25° C. (text)), 1.29 mg/mL; in series [2] (pH 4, ionic strength 0.2 buffer, 25° C. (text)), 1.32 mg/mL; in series [2] (pH 6, ionic strength 0.2 buffer, 25° C.), 1.28 mg/mL; in series [2] (pH 7, ionic strength 0.2 buffer, 25° C.) it was 0.64 mg/mL; in series [2] (pH 7.4, ionic strength 0.2 buffer, 25° C. (text)), 1.35 mg/mL. For the same compound, the solubility in series [2] (pH 8, ionic strength 0.2 buffer, 25° C. (text)) came out at 1.25 mg/mL. Also, the HPLC content in series [3] (1 week) came out at 99.6%; in series [3] (2 weeks), 99.4%; in series [3] (4 weeks), 99.2%; in series [3] (initial), 99.6%. In series [5], the “Content (HPLC)” value is on record as 82.5%. In addition, the colour change entry in series [5] (listed as amlodipine besylate) was “turned yellow from white”.
